According to EPA's ToxValDB 9.5 (doi:10.2903/j.efsa.2018.5252):

Legend:
Aphidius rhopalosiphi = assay: LR50; higher = less toxic; details: not reported; mortality
Canidae = details: subchronic; duration: 90 days; oral; M/F; Dog Other; body weight
Cyprinus carpio = details: acute; duration: 96 hours; mortality
Apis mellifera = details: acute, mortality
Bibionidae = details: chronic/long-term
Tagia sp. = details: chronic/long-term; growth
Oryctolagus sp. = details: reproduction developmental; body weight
Pimephales promelas = details: chronic/long-term; duration: 110 days; reproduction

CC[C@H]1CCC[C@H](O[C@H]2CC[C@H](N(C)C)[C@@H](C)O2)[C@@H](C)C(=O)C2=C[C@@H]3[C@@H](C=C(C)[C@@H]4C[C@@H](O[C@@H]5O[C@@H](C)[C@H](OC)[C@@H](OC)[C@H]5OC)C[C@@H]34)[C@@H]2CC(=O)O1.CC[C@H]1CCC[C@H](O[C@H]2CC[C@H](N(C)C)[C@@H](C)O2)[C@@H](C)C(=O)C2=C[C@@H]3[C@@H](C=C[C@@H]4C[C@@H](O[C@@H]5O[C@@H](C)[C@H](OC)[C@@H](OC)[C@H]5OC)C[C@@H]34)[C@@H]2CC(=O)O1 [Spinosad]
LR50 (Aphidius rhopalosiphi): 0.371 g/ha | NOAEL (Canidae): 4.89 mg/kg-day | LC50 (Cyprinus carpio): 4 µg/mL | LD50 (Apis mellifera; dermal): 0.0036 µg/piece | LD50 (Apis mellifera; oral, unspecified): 0.057 µg/piece | LD50 (Colinus virginianus; acute, oral, mortality): > 2000 mg/kg-day | NOAEL (Colinus virginianus; chronic): 68.5 mg/kg-day | LEL (Colinus virginianus; chronic, mortality): 200 mg/kg-day | NOEC (Bibionidae; duration: 25 days): 0.62 µg/L | NOEC (Bibionidae; duration: 28 days): 0.0585 mg/kg | NOEC (Tagia sp.): 35.2 mg/kg | NOAEL (Oryctolagus sp.): 10 mg/kg-day | LD50 (Anas platyrhynchos; acute, oral, unspecified, mortality): > 2000 mg/kg-day | NOAEL (Anas platyrhynchos; chronic/long-term): 78.1 mg/kg-day | LEL (Anas platyrhynchos; chronic/long-term, mortality): 200 mg/kg-day | NOEC (Pimephales promelas): 0.217 mg/L | LD50 (Rattus norvegicus; acute, oral, mortality): > 2000 mg/kg-day | NOAEL (Rattus norvegicus; chronic, duration: 2 years, oral, diet, M, Fischer 344, organ weight): 2.4 mg/kg-day | NOAEL (Rattus norvegicus; reproduction developmental, M/F, reproduction): 10 mg/kg-day
